Source: PubChem BioAssay (NCI)
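Test compounds were applied to cells in 96-well plates for 48 hours at 5 doses. The concentration for 50% growth inhibition is given as GI50. TGI denotes the concentration required for complete inhibition of growth.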

Assays:
Assay in all cases: inhibition of tumour cell growth, NCI panel, 48 h
HCT-15 colon = test system: HCT-15 colon
HS 578T breast = test system: HS 578T breast
K-562 leukemia = test system: K-562 leukemia
MDA-MB-231 breast = test system: MDA-MB-231 breast
NCI-H23 lung = test system: NCI-H23 lung
OVCAR-3 ovarian = test system: OVCAR-3 ovarian
SF-268 CNS = test system: SF-268 CNS
SK-MEL-2 melanoma = test system: SK-MEL-2 melanoma
TK-10 renal = test system: TK-10 renal
HOP-92 NSCLC = test system: HOP-92 NSCLC

Cc1ccc(C2=C(c3ccc(C)cc3)C3(c4ccc(C)cc4)C4C(=O)c5ccccc5C(=O)C4C2(c2ccc(C)cc2)S3=O)cc1 (stereo not given) was tested, and the GI50 (HCT-15 colon) was greater than 100 µM, the TGI (HCT-15 colon) was greater than 100 µM and the GI50 (HS 578T breast) was greater than 100 µM. The TGI (HS 578T breast) was greater than 100 µM, the GI50 (K-562 leukemia) was greater than 100 µM and the TGI (K-562 leukemia) was greater than 100 µM. The GI50 (MDA-MB-231 breast) was 60 µM, the TGI (MDA-MB-231 breast) was greater than 100 µM and the GI50 (NCI-H23 lung) was greater than 100 µM. For the same compound, the TGI (NCI-H23 lung) was greater than 100 µM, the GI50 (OVCAR-3 ovarian) was greater than 100000 nM and the TGI (OVCAR-3 ovarian) was greater than 100 µM. The GI50 (SF-268 CNS) was greater than 100 µM, the TGI (SF-268 CNS) was greater than 100 µM and the GI50 (SK-MEL-2 melanoma) was greater than 100 µM. For the same compound, the TGI (SK-MEL-2 melanoma) was greater than 100 µM, the GI50 (TK-10 renal) was greater than 100 µM and the TGI (TK-10 renal) was greater than 100 µM.
For O=C(CC1(O)C(=O)Nc2ccccc21)c1ccc(O)cc1 (stereo not given), the TGI (HCT-15 colon) was greater than 100 µM, the TGI (HOP-92 NSCLC) was greater than 100 µM and the TGI (K-562 leukemia) was greater than 100 µM. It also gave a TGI (NCI-H23 lung) greater than 100 µM, a TGI (OVCAR-3 ovarian) greater than 100 µM and a TGI (SF-268 CNS) greater than 100 µM. The TGI (SK-MEL-2 melanoma) was greater than 100 µM and the TGI (TK-10 renal) was greater than 100 µM.
COc1ccc(/C=C2\CN(Cc3cn(CCNc4ccnc5cc(Cl)ccc45)nn3)C/C(=C\c3ccc(OC)c(OC)c3)C2=O)cc1OC gave a GI50 (HCT-15 colon) of 6.87 µM, a TGI (HCT-15 colon) of 38.7 µM and a GI50 (HS 578T breast) of 6.49 µM. It also gave a TGI (HS 578T breast) greater than 100 µM, a GI50 (K-562 leukemia) of 3.21 µM and a TGI (K-562 leukemia) greater than 100 µM. It also gave a GI50 (MDA-MB-231 breast) of 2.56 µM, a TGI (MDA-MB-231 breast) of 7.68 µM and a GI50 (NCI-H23 lung) of 7.45 µM. For the same compound, the TGI (NCI-H23 lung) was 37.8 µM, the GI50 (OVCAR-3 ovarian) was 2800 nM and the TGI (OVCAR-3 ovarian) was 8.57 µM. It also gave a GI50 (SF-268 CNS) of 3.36 µM, a TGI (SF-268 CNS) of 21.5 µM and a GI50 (SK-MEL-2 melanoma) of 3.88 µM. It also gave a TGI (SK-MEL-2 melanoma) of 26.6 µM, a GI50 (TK-10 renal) of 4.96 µM and a TGI (TK-10 renal) of 22 µM.
In the case of Cc1cccc(N2C(=O)C(=O)C(c3nc4ccccc4s3)/C(=N/NC(=S)NN)C2=O)c1C (stereo not given), the TGI (HCT-15 colon) is reported as greater than 100 µM, the TGI (HOP-92 NSCLC) is reported as greater than 100 µM and the TGI (K-562 leukemia) is reported as greater than 100 µM. The TGI (NCI-H23 lung) was greater than 100 µM, the TGI (OVCAR-3 ovarian) was greater than 100 µM and the TGI (SF-268 CNS) was greater than 100 µM. It also gave a TGI (SK-MEL-2 melanoma) greater than 100 µM and a TGI (TK-10 renal) greater than 100 µM.
CC(CNCCCNCCNCCCNCO)[N+](=O)[O-] (stereo not given) was tested, and the TGI (HCT-15 colon) was 23.2 µM, the TGI (HOP-92 NSCLC) was 8.57 µM and the TGI (K-562 leukemia) was 19.6 µM. The TGI (NCI-H23 lung) was 28.6 µM, the TGI (OVCAR-3 ovarian) was 30.4 µM and the TGI (SF-268 CNS) was 29.6 µM. It also gave a TGI (SK-MEL-2 melanoma) of 29.4 µM and a TGI (TK-10 renal) of 8.6 µM.
For CCN(CC)C(=O)N1CCN(C=S)CC1, the TGI (HCT-15 colon) was greater than 100 µM, the TGI (K-562 leukemia) was greater than 100 µM and the TGI (NCI-H23 lung) was greater than 100 µM. For the same compound, the TGI (OVCAR-3 ovarian) was greater than 100 µM, the TGI (SF-268 CNS) was greater than 100 µM and the TGI (SK-MEL-2 melanoma) was greater than 100 µM. It also gave a TGI (TK-10 renal) greater than 100 µM.
In the case of O=[N+]([O-])c1cc(Cl)ccc1OCc1ccccc1, the TGI (HCT-15 colon) is reported as greater than 100 µM, the TGI (HOP-92 NSCLC) is reported as 92.5 µM and the TGI (K-562 leukemia) is reported as greater than 100 µM. It also gave a TGI (NCI-H23 lung) of 96.5 µM, a TGI (OVCAR-3 ovarian) greater than 100 µM and a TGI (SF-268 CNS) greater than 100 µM. The TGI (SK-MEL-2 melanoma) was greater than 100 µM and the TGI (TK-10 renal) was greater than 100 µM.
CC1C[C@]2(C[C@@H](C)C(=O)O2)O[C@@H]2CC3(C)[C@@H]4CCC5C(C)(C)OC(=O)C[C@H]6OO[C@]4(CC[C@]3(C)C12)CC56O (stereo not given in full) gave a TGI (HCT-15 colon) greater than 100 µM, a TGI (NCI-H23 lung) greater than 100 µM and a TGI (OVCAR-3 ovarian) greater than 100 µM. The TGI (SK-MEL-2 melanoma) was greater than 100 µM and the TGI (TK-10 renal) was greater than 100 µM.
For CC1=C(C(=O)Nc2ccc([N+](=O)[O-])cc2)C(c2ccc3c(c2)OCO3)C(C(=O)Nc2ccc([N+](=O)[O-])cc2)=C(C)N1, the TGI (HCT-15 colon) was greater than 100 µM, the TGI (HOP-92 NSCLC) was 38.9 µM and the TGI (K-562 leukemia) was greater than 100 µM. For the same compound, the TGI (NCI-H23 lung) was 57.9 µM, the TGI (OVCAR-3 ovarian) was greater than 100 µM and the TGI (SF-268 CNS) was greater than 100 µM. For the same compound, the TGI (SK-MEL-2 melanoma) was 35 µM.
In the case of CN[C@@H](C)[C@H](N)c1ccccc1, the TGI (HCT-15 colon) is reported as greater than 100 µM, the TGI (HOP-92 NSCLC) is reported as greater than 100 µM and the TGI (K-562 leukemia) is reported as greater than 100 µM. The TGI (NCI-H23 lung) was greater than 100 µM, the TGI (OVCAR-3 ovarian) was greater than 100 µM and the TGI (TK-10 renal) was greater than 100 µM.
In the case of C=C1C2CC(OC(C)=O)C3(C)C(c4ccoc4)OC(=O)[C@@H](O)[C@]13OC1C[C@H](OC(C)=O)C(C)(C)[C@H](CC(=O)OC)[C@]12C (stereo not given in full), the TGI (HCT-15 colon) is reported as greater than 100 µM, the TGI (HOP-92 NSCLC) is reported as greater than 100 µM and the TGI (K-562 leukemia) is reported as greater than 100 µM. It also gave a TGI (NCI-H23 lung) greater than 100 µM, a TGI (OVCAR-3 ovarian) greater than 100 µM and a TGI (SK-MEL-2 melanoma) greater than 100 µM. The TGI (TK-10 renal) was greater than 100 µM.
